Source: ChEMBL document CHEMBL1150644, “Corticatic acids D and E, polyacetylenic geranylgeranyltransferase type I inhibitors, from the marine sponge Petrosia corticata” (J Nat Prod, 2002)
Converted amounts (≈) assume the structure as drawn.

Key:
[1] = Inhibition of Candida albicans GGTase 1 by streptavidin scintillation proximity assay
Candida albicans = assay: Antimicrobial activity against Candida albicans; format: functional

Row | SMILES | IC50 [1] [µM] | MIC (Candida albicans) [µM]
1 | C#CC(O)/C=C/CCCCCC#CC/C=C\CCCCCCCCCCC/C=C\C#CC(=O)O (centres undefined) [CORTICATIC ACID A] | 1.9 | 54 (≈ 25.1 µg/mL)
2 | C#C[C@H](O)/C=C/CCCCC/C=C\C/C=C\CCCCCCCCCCC/C=C\C#CC(=O)O [CORTICATIC ACID E] | 7.3 | –
3 | C#C[C@H](O)/C=C/CCCCCC#C/C=C/C(O)CCCCCCCCCCC/C=C\C#CC(=O)O (some centres undefined) [CORTICATIC ACID D] | 3.3 | –
